Experimental data published in ChEMBL document CHEMBL5725509, “Substituted pyrido[3,4-b]pyrazines as GPR6 modulators” (2017).

Target: G-protein coupled receptor 6 (Homo sapiens, UniProt P46095)
Assay: cAMP assay A.1: This cell based assay measures the ability of compounds to inhibit the constitutive cAMP activity of GPR6 receptor expressed in CHO-K1 cells. CHO cells were stably expressed with GPR6 receptor, whose expression is controlled by a tetracycline inducable element. The cells were cultured in medium containing F12K, 10% FBS, 1% Penn/Strep, 200 ug/mL Hygromycin. GPR6 receptor expression was induced for 20 hrs with 1 μg/ml doxycycline (sigma D9891) in growth media. After addition of doxycycline cells were plated at a density of 250-500 cells per well in half-volume black clear bottom plates (Costar) and place in an incubator (37°, 5% C(O)2) for 20 hours prior to cAMP assays. Culture media was removed from cells and they were washed with 50 μL of Ringer's Buffer (MgCl2 0.047 mg/mL, NaH2PO4 0.18 mg/mL, Na2HPO4 0.1 mg/mL, KCl 0.34 mg/mL, NaHC(O)3 1.26 mg/mL, D-glucose 1.8 mg/mL, NaCl 7 mg/mL; pH=7.4). Compounds suspended in DMSO were diluted in Ringer's Buffer containing 0.5% fatty acid free BSA and incubated on cells for 45 min at 37° and 5% C(O)2. After incubation cells were incubated for 10 min at room temp with Eu-cAMP tracer solution from a Perkin Elmer Lance HTRF UltracAMP assay kit (TRF0264). Then ULight-anti-cAMP solution from the Lance HTRF kit was added and incubated on a shaker at room temp for 1 hour prior to HTRF detection in a BMG PolarStar Omega. […]

G-protein coupled receptor 6, sequence (P46095 whole entry): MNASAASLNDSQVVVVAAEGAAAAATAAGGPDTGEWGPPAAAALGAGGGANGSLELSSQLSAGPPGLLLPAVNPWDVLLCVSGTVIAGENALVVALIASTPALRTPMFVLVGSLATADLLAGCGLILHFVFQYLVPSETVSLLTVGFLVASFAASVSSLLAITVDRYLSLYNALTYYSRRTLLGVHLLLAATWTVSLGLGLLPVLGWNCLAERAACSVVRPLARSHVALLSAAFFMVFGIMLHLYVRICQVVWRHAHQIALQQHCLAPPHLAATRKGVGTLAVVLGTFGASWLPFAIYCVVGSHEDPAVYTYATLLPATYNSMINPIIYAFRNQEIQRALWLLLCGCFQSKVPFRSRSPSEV

Structure (SMILES) | IC50 [µM]
CN1CCc2nc(N3CCC(Oc4ccc(F)cc4F)CC3)c(NCC(F)F)nc2C1 | > 1000
CC(=O)N1CCc2nc(N3CCN(C(=O)OC(C)(C)C)CC3)c(NC(C)C)nc2C1 | > 1000
